Laboratory results: ChEMBL document CHEMBL1201862, “PubChem BioAssay data set” (2004)
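Five compound concentrations were applied to cells in 96-well plates for 48 hours; endpoints were derived by simple linear interpolation of the resulting dose-response curve. GI50: concentration for 50% inhibition of growth.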 Activity calls are given as the source filed them. Cut-off read from the data, not from the text of the source: active = GI50 up to about 1.1 µM and inactive = higher.

How the values were obtained:
Test in all cases: inhibition of tumour cell growth, NCI panel, 48 h
SR = test system: SR
HCT-15 = test system: HCT-15
NCI-H226 = test system: NCI-H226
SW-620 = test system: SW-620
UACC-62 = test system: UACC-62
Malme-3M = test system: Malme-3M
SNB-75 = test system: SNB-75
DU-145 = test system: DU-145
NCI/ADR-RES = test system: NCI/ADR-RES
OVCAR-8 = test system: OVCAR-8
SK-OV-3 = test system: SK-OV-3
786-0 = test system: 786-0
M14 = test system: M14
HOP-62 = test system: HOP-62
CAKI-1 = test system: CAKI-1
HL-60 = test system: HL-60
A549 = test system: A549
A498 = test system: A498
SK-MEL-28 = test system: SK-MEL-28
UACC-257 = test system: UACC-257
IGROV-1 = test system: IGROV-1
CCRF-CEM = test system: CCRF-CEM
U-251 = test system: U-251
SF-268 = test system: SF-268
NCI-H460 = test system: NCI-H460
NCI-H23 = test system: NCI-H23
SK-MEL-2 = test system: SK-MEL-2
HT-29 = test system: HT-29
SNB-19 = test system: SNB-19
SF-539 = test system: SF-539
MCF7 = test system: MCF7
PC-3 = test system: PC-3
OVCAR-4 = test system: OVCAR-4
UO-31 = test system: UO-31
MDA-N = test system: MDA-N
K562 = test system: K562
Hs-578T = test system: Hs-578T
MDA-MB-435 = test system: MDA-MB-435
HCC 2998 = test system: HCC 2998
KM12 = test system: KM12
RPMI-8226 = test system: RPMI-8226
EKVX = test system: EKVX
ACHN = test system: ACHN
SK-MEL-5 = test system: SK-MEL-5
COLO 205 = test system: COLO 205
LOX IMVI = test system: LOX IMVI
TK-10 = test system: TK-10
MDA-MB-231 = test system: MDA-MB-231
SN12C = test system: SN12C
MOLT-4 = test system: MOLT-4
HCT-116 = test system: HCT-116
SF-295 = test system: SF-295
T47D = test system: T47D
RXF 393 = test system: RXF 393
OVCAR-5 = test system: OVCAR-5
OVCAR-3 = test system: OVCAR-3
NCI-H522 = test system: NCI-H522
HOP-92 = test system: HOP-92
BT-549 = test system: BT-549

Measured: GI50

C=CCOC(=O)Cn1cc(C)c(=O)[nH]c1=O
> 100 µM: HCT-15
inactive: SR > 100 µM | NCI-H226 > 100 µM | SW-620 > 100 µM | UACC-62 > 100 µM | Malme-3M > 100 µM | SNB-75 > 100 µM | DU-145 > 100 µM | NCI/ADR-RES > 100 µM | OVCAR-8 > 100 µM | SK-OV-3 > 100 µM | 786-0 > 100 µM | M14 > 100 µM | HOP-62 > 100 µM | CAKI-1 > 100 µM | HL-60 > 100 µM | A549 > 100 µM | A498 > 100 µM | SK-MEL-28 > 100 µM | UACC-257 > 100 µM | IGROV-1 > 100 µM | CCRF-CEM > 100 µM | U-251 > 100 µM | SF-268 > 100 µM | NCI-H460 > 100 µM | NCI-H23 > 100 µM | SK-MEL-2 > 100 µM | HT-29 > 100 µM | SNB-19 > 100 µM | SF-539 > 100 µM | MCF7 > 100 µM | PC-3 > 100 µM | OVCAR-4 > 100 µM | UO-31 > 100 µM | MDA-N > 100 µM | K562 > 100 µM | Hs-578T > 100 µM | MDA-MB-435 > 100 µM | HCC 2998 > 100 µM | KM12 > 100 µM | RPMI-8226 > 100 µM | EKVX > 100 µM | ACHN > 100 µM | SK-MEL-5 > 100 µM | COLO 205 > 100 µM | LOX IMVI > 100 µM | TK-10 > 100 µM | MDA-MB-231 > 100 µM | SN12C > 100 µM | MOLT-4 > 100 µM | HCT-116 > 100 µM | SF-295 > 100 µM | T47D > 100 µM

CC(C)[Si](CC1=CCCCC12C(=O)N(COCC[Si](C)(C)C)c1ccccc12)(C(C)C)C(C)C (stereo unspecified)
active: CCRF-CEM 0.448 µM
inactive: SR > 100 µM | RXF 393 20.6 µM | NCI-H226 > 100 µM | SW-620 > 100 µM | UACC-62 > 100 µM | Malme-3M > 100 µM | SNB-75 > 100 µM | DU-145 66.7 µM | NCI/ADR-RES > 100 µM | OVCAR-8 89.3 µM | SK-OV-3 > 100 µM | 786-0 > 100 µM | M14 > 100 µM | HOP-62 > 100 µM | CAKI-1 > 100 µM | A549 > 100 µM | A498 > 100 µM | SK-MEL-28 92.5 µM | UACC-257 37.6 µM | IGROV-1 > 100 µM | U-251 > 100 µM | SF-268 > 100 µM | NCI-H460 82.2 µM | NCI-H23 66.8 µM | SK-MEL-2 > 100 µM | OVCAR-5 27.2 µM | HT-29 51.6 µM | SNB-19 66.5 µM | SF-539 73.1 µM | MCF7 61 µM | PC-3 > 100 µM | OVCAR-4 > 100 µM | UO-31 > 100 µM | MDA-N > 100 µM | K562 > 100 µM | Hs-578T > 100 µM | MDA-MB-435 > 100 µM | HCC 2998 65.6 µM | KM12 > 100 µM | RPMI-8226 > 100 µM | EKVX 63.8 µM | ACHN > 100 µM | SK-MEL-5 43.7 µM | OVCAR-3 39.4 µM | COLO 205 > 100 µM | LOX IMVI 29.2 µM | NCI-H522 41.8 µM | TK-10 > 100 µM | HOP-92 89.3 µM | MDA-MB-231 > 100 µM | MOLT-4 > 100 µM | SF-295 31.1 µM | T47D 33.7 µM
> 100 µM: HCT-15

CC(NC(=O)N(C)C)NC(=O)N(C)C
> 10 µM: HCT-15
inactive: SR > 10 µM | RXF 393 > 10 µM | NCI-H226 > 10 µM | SW-620 > 10 µM | UACC-62 > 10 µM | Malme-3M > 10 µM | SNB-75 > 10 µM | DU-145 > 10 µM | NCI/ADR-RES > 10 µM | OVCAR-8 > 10 µM | SK-OV-3 > 10 µM | 786-0 > 10 µM | M14 > 10 µM | HOP-62 > 10 µM | CAKI-1 > 10 µM | HL-60 > 10 µM | A549 > 10 µM | A498 > 10 µM | SK-MEL-28 > 10 µM | UACC-257 > 10 µM | IGROV-1 > 10 µM | CCRF-CEM > 10 µM | U-251 > 10 µM | SF-268 > 10 µM | NCI-H460 > 10 µM | NCI-H23 > 10 µM | SK-MEL-2 > 10 µM | HT-29 > 10 µM | SNB-19 > 10 µM | SF-539 > 10 µM | MCF7 > 10 µM | PC-3 > 10 µM | OVCAR-4 > 10 µM | UO-31 > 10 µM | MDA-N > 10 µM | K562 > 10 µM | Hs-578T > 10 µM | MDA-MB-435 > 10 µM | HCC 2998 > 10 µM | KM12 > 10 µM | RPMI-8226 > 10 µM | EKVX > 10 µM | ACHN > 10 µM | SK-MEL-5 > 10 µM | OVCAR-3 > 10 µM | COLO 205 > 10 µM | LOX IMVI > 10 µM | NCI-H522 > 10 µM | TK-10 > 10 µM | HOP-92 > 10 µM | MDA-MB-231 > 10 µM | SN12C > 10 µM | MOLT-4 > 10 µM | HCT-116 > 10 µM | SF-295 > 10 µM | T47D > 10 µM

Nc1ccc(-c2nc3ccc(F)cc3s2)cc1
inactive: SR 77.3 µM | SW-620 51.9 µM | UACC-62 16.6 µM | Malme-3M 51.8 µM | SNB-75 31.5 µM | DU-145 23.7 µM | NCI/ADR-RES 33.9 µM | OVCAR-8 48.3 µM | 786-0 35.4 µM | M14 36.4 µM | HOP-62 29.5 µM | CAKI-1 31.1 µM | A549 28.1 µM | A498 30 µM | SK-MEL-28 60.1 µM | UACC-257 43.2 µM | CCRF-CEM 19.1 µM | U-251 31.4 µM | SF-268 37.3 µM | NCI-H23 31.3 µM | SK-MEL-2 19.8 µM | HT-29 38.2 µM | SNB-19 32.8 µM | SF-539 36.4 µM | PC-3 17.2 µM | UO-31 26 µM | MDA-N 39.4 µM | K562 43.7 µM | Hs-578T 20.2 µM | MDA-MB-435 25.9 µM | BT-549 39.4 µM | KM12 25.2 µM | RPMI-8226 18.6 µM | EKVX 32 µM | ACHN 21 µM | SK-MEL-5 15.3 µM | OVCAR-3 22.5 µM | COLO 205 17.9 µM | LOX IMVI 28.7 µM | NCI-H522 30.8 µM | TK-10 26.6 µM | HOP-92 29.4 µM | MDA-MB-231 25.3 µM | SN12C 33 µM | MOLT-4 > 100 µM | HCT-116 36.6 µM | SF-295 25.5 µM
35.8 µM: HCT-15

CC(C)(C)OC(=O)n1cc(C2CN(O)C(=O)C23CCC(=O)N3Cc2ccccc2)c2ccccc21 (stereo unspecified)
inactive: SR 44.6 µM | RXF 393 68.4 µM | NCI-H226 24.5 µM | SW-620 68.7 µM | UACC-62 68.1 µM | Malme-3M > 100 µM | SNB-75 32.7 µM | DU-145 60.1 µM | NCI/ADR-RES 69.5 µM | SK-OV-3 23.9 µM | 786-0 45.9 µM | M14 > 100 µM | HOP-62 93.1 µM | CAKI-1 54.6 µM | HL-60 54.2 µM | A549 35.3 µM | A498 24.8 µM | UACC-257 64.1 µM | IGROV-1 18.8 µM | CCRF-CEM 83.2 µM | U-251 36.9 µM | SF-268 86.3 µM | NCI-H460 56.4 µM | NCI-H23 61.1 µM | SK-MEL-2 14.8 µM | OVCAR-5 46.9 µM | HT-29 39.9 µM | SNB-19 68.7 µM | SF-539 49 µM | MCF7 33.5 µM | PC-3 28 µM | OVCAR-4 98.9 µM | UO-31 40.7 µM | MDA-N 52.7 µM | K562 78.7 µM | Hs-578T 42.3 µM | MDA-MB-435 28.6 µM | KM12 44.1 µM | RPMI-8226 31.6 µM | EKVX 21.9 µM | SK-MEL-5 29.4 µM | OVCAR-3 66.5 µM | COLO 205 36.1 µM | LOX IMVI 21.2 µM | NCI-H522 14.1 µM | TK-10 32.8 µM | HOP-92 4.46 µM | MDA-MB-231 28.8 µM | SN12C 27 µM | MOLT-4 > 100 µM | HCT-116 66.2 µM | SF-295 78.5 µM | T47D 50.6 µM
